Columns and labels:
MDA-MB-468 [1] = experiment: mitotic catastrophe, nuclear staining; assay type: cell-based, human; settings: MDA-MB-468, 0.5 μM, 30 h
Description: (§1) Then treated tumor cells were washed with PBS and stain with Hoechst 33342 in the dark for 15 min. Image were taken by fluorescence microscopy for morphological changes after YLT-11 treatment.

MDA-MB-231 [2] = experiment: mitotic catastrophe, nuclear staining; assay type: cell-based, human; settings: MDA-MB-231, 0.5 μM, 30 h
Description: as §1

[3] = test system: MDA-MB-468 tumor xenograft; settings: MDA-MB-468 xenograft, 90 mg/kg p.o. every day
PLK1 [4] = biological target: T1, PLK1 (Homo sapiens, UniProt P53350); experiment: kinase activity in vitro; assay type: biochemical
T1 sequence (P53350 whole entry): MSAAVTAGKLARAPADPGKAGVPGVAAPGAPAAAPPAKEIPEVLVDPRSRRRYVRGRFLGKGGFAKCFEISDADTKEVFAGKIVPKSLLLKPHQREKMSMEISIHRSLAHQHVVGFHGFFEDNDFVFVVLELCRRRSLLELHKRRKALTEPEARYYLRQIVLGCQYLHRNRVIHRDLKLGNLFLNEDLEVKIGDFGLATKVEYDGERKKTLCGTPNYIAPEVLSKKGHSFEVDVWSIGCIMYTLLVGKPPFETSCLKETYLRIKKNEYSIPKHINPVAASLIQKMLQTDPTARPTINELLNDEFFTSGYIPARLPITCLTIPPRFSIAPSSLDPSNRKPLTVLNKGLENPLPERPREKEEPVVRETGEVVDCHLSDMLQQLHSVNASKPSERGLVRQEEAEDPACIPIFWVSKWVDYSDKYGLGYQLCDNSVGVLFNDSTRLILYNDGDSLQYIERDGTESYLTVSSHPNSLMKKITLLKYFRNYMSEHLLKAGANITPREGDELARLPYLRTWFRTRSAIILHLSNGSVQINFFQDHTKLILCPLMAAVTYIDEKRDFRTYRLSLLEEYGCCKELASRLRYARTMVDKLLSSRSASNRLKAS

sub-acute toxicity test = assay type: in vivo, BALB/c mice; settings: single oral dose 1 g/kg, observed 15 days
Text: Then blood of the mice was obtained for serum biochemistry and hematological analysis using a Hitachi 7200 Blood Chemistry Analyzer and a Nihon Kohdern MEK-5216K Automatic Hematology Analyzer. The heart, liver, spleen, lung and kidney were fixed and routinely processed and embedded in paraﬃn for hematoxylin and eosin (H&E) staining analysis.

[5] = test system: MDA-MB-231 tumor xenograft; settings: MDA-MB-231 xenograft, 90 mg/kg p.o. every day
ERBB2/HER2 = ERBB2/HER2 (Homo sapiens, UniProt P04626); experiment: kinase activity in vitro; assay type: biochemical
Sequence of ERBB2/HER2 (P04626 23-1255): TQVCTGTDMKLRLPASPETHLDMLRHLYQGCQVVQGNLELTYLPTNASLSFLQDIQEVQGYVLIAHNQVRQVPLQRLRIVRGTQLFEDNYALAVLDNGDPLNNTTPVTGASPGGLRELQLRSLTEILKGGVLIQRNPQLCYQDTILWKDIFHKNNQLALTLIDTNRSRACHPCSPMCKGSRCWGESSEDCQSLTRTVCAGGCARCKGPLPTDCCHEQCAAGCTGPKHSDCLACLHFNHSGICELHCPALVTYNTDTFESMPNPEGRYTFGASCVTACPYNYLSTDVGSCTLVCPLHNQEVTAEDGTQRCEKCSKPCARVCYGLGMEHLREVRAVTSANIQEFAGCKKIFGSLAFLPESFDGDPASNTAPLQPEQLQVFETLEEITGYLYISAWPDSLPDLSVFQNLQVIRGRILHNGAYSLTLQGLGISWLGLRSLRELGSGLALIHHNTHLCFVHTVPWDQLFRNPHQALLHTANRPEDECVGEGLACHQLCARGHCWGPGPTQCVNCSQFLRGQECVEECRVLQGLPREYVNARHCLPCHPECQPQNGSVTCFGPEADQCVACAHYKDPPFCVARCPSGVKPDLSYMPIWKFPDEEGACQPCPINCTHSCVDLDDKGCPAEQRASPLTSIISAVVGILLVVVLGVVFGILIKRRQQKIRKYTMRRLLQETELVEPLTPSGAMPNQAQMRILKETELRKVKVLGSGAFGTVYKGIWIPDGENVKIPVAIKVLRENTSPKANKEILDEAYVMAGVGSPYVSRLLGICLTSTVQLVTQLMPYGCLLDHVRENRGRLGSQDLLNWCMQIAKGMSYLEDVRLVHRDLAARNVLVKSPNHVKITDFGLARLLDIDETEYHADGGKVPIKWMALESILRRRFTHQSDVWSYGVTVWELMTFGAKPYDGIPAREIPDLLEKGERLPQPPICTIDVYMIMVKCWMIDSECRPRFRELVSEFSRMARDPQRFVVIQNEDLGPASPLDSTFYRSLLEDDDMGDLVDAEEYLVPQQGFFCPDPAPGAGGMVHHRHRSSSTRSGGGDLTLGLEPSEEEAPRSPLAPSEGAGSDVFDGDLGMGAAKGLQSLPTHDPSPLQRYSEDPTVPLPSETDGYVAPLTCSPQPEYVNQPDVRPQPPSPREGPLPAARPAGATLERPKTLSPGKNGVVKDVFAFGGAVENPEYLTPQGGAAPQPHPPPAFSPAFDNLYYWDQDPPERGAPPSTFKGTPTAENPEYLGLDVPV

PLK1 [6] = biological target: T1, PLK1; experiment: competition binding constant assay
Description: (§3) Kinases were produced in HEK-293 cells and subsequently tagged with DNA for quantitative polymerase chain reaction (qPCR) detection. […] The beads were blocked with excess biotin and washed with blocking buffer (SeaBlock, 1% bovine serum albumin, 0.05% Tween-20, 1 mM dithiothreitol (DTT)). […] The kinase concentration in the eluates was measured by qPCR.

Aurora A = Aurora A (Homo sapiens, UniProt O14965); experiment: kinase activity in vitro; assay type: biochemical
Sequence of Aurora A (O14965 whole entry): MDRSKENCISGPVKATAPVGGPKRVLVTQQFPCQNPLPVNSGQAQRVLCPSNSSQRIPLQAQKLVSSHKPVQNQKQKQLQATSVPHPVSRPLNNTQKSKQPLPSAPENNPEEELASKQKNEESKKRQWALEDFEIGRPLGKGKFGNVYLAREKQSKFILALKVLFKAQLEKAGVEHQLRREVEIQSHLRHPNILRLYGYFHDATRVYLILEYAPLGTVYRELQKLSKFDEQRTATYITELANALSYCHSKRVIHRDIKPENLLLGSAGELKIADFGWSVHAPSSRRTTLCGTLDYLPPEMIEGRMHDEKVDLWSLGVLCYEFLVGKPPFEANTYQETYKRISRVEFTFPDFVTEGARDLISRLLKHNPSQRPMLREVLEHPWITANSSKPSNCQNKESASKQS

MDA-MB-468 [7] = experiment: cells; settings: Homo sapiens, MDA-MB-468, read-out: IC50 proliferation
Description: (§2) The IC50 values were calculated using the GraphPad Prism software, each assay was replicated 3 times.

TNBC cell lines = experiment: cells; settings: Homo sapiens, read-out: IC50 proliferation, range over TNBC cell lines
Description: as §2

MCF-10A = experiment: cells; settings: Homo sapiens, read-out: IC50 proliferation
Description: as §2

MDA-MB-231 [8] = experiment: cells; settings: Homo sapiens, MDA-MB-231, read-out: IC50 proliferation
Description: as §2

ZR-75-1 = experiment: cells; settings: Homo sapiens, ZR-75-1, read-out: IC50 proliferation
Description: as §2

SKBR-3 = experiment: cells; settings: Homo sapiens, SK-BR-3, read-out: IC50 proliferation
Description: as §2

MDA-MB-435 = experiment: cells; settings: Homo sapiens, MDA-MB-435, read-out: IC50 proliferation
Description: as §2

MCF-7 = experiment: cells; settings: Homo sapiens, MCF7, read-out: IC50 proliferation
Description: as §2

ZR-75-30 = experiment: cells; settings: Homo sapiens, ZR-75-30, read-out: IC50 proliferation
Description: as §2

BT549 = experiment: cells; settings: Homo sapiens, BT-549, read-out: IC50 proliferation
Description: as §2

BT474 = experiment: cells; settings: Homo sapiens, BT-474, read-out: IC50 proliferation
Description: as §2

HCC1954 = experiment: cells; settings: Homo sapiens, HCC1954, read-out: IC50 proliferation
Description: as §2

MDA-MB-453 = experiment: cells; settings: Homo sapiens, MDA-MB-453, read-out: IC50 proliferation
Description: as §2

MDA-MB-436 = experiment: cells; settings: Homo sapiens, MDA-MB-436, read-out: IC50 proliferation
Description: as §2

FGFR1 = FGFR1 (Homo sapiens, UniProt P11362); experiment: kinase activity in vitro; assay type: biochemical
breast xenograft models = experiment: breast tumor xenograft models (overall, tolerability); assay type: in vivo, BALB/c nude mice
TTBK2 = TTBK2 (Homo sapiens, UniProt Q6IQ55); experiment: kinase activity in vitro; assay type: biochemical
MCF-7 tumor xenograft = settings: MCF-7 xenograft, 90 mg/kg p.o. every day
TTBK1 = TTBK1 (Homo sapiens, UniProt Q5TCY1); experiment: kinase activity in vitro; assay type: biochemical
PLK2 [9] = biological target: T2, PLK2 (Homo sapiens, UniProt Q9NYY3); experiment: competition binding constant assay
T2 construct: made in house; host or cells: T7 phage in E. coli (BL21-derived) or HEK-293 cells
T2 sequence (Q9NYY3 whole entry): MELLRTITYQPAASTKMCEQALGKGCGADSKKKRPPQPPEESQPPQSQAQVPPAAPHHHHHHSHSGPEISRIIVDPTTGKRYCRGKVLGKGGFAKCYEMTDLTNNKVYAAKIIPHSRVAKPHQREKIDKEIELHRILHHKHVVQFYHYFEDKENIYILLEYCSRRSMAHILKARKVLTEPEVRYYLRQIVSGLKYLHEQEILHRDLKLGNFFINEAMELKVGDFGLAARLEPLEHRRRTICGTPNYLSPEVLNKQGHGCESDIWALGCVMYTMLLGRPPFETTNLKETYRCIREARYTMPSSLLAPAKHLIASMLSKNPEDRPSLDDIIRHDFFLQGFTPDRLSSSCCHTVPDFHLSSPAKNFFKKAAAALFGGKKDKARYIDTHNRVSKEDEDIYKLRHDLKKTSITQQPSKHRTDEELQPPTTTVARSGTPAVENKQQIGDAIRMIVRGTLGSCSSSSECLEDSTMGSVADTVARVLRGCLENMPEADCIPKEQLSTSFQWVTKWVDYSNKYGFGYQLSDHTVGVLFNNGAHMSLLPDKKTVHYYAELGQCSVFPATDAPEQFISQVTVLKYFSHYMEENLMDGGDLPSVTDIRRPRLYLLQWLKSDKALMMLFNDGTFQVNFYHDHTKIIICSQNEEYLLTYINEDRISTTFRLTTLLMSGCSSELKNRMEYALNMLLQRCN
Description: as §3

PLK3 [10] = biological target: T3, PLK3 (Homo sapiens, UniProt Q9H4B4); experiment: competition binding constant assay
T3 sequence (Q9H4B4 whole entry): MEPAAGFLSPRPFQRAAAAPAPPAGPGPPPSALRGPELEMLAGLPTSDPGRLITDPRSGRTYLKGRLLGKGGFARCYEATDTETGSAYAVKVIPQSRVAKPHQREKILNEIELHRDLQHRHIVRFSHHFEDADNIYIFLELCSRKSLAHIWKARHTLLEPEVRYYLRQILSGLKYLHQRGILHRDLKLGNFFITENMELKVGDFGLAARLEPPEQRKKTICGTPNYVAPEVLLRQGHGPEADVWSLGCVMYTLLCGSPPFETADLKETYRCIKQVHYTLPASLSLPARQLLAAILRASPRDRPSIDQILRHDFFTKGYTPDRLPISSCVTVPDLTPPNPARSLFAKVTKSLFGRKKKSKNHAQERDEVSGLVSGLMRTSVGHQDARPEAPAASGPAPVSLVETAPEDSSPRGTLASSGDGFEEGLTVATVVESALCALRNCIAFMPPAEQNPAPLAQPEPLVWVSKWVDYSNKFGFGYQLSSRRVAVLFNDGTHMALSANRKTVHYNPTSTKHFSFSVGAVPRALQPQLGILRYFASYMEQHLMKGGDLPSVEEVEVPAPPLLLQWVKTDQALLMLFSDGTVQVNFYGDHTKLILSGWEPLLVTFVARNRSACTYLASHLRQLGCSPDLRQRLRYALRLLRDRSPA
Description: as §3

TOPK = TOPK (Homo sapiens, UniProt Q96KB5); experiment: kinase activity in vitro; assay type: biochemical
Sequence of TOPK (Q96KB5 whole entry): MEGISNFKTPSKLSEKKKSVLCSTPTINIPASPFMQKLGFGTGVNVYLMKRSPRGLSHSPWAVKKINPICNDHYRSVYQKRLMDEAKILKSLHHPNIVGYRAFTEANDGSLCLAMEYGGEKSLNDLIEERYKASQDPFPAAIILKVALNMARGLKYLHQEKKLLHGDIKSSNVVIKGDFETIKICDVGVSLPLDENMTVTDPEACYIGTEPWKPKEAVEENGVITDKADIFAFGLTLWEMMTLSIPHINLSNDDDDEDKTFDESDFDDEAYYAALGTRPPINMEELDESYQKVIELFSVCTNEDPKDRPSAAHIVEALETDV

MDA-MB-231 xenografts = experiment: immunohistochemical analysis of tumor tissues; settings: MDA-MB-231 tumor tissue
Description: Tumor tissues obtained from the animal models were immersed in 4% paraformaldehyde. After washing with running tap water overnight, the tissues dehydrated trough a serial alcohol gradient and embedded in paraffin, Paraffin-embedded tumor sections were stained with primary antibodies (Ki67, cleaved caspase-3, p21, CDC25C, CyclinB1) using the DAB Detection Kit. The images were captured with a Carl Zeiss digital camera attached to a light microscope.

EGFR = EGFR (Homo sapiens, UniProt P00533); experiment: kinase activity in vitro; assay type: biochemical
PLK2 [11] = biological target: T2, PLK2; experiment: kinase activity in vitro; assay type: biochemical
PLK3 [12] = biological target: T3, PLK3; experiment: kinase activity in vitro; assay type: biochemical
[13] = test system: MDA-MB-468 and MDA-MB-231; experiment: centriole number by immunofluorescence (centrin 2, γ-tublin); assay type: cell-based, human; settings: 24 h
Description: Tumor cells were seeded in Millicell EZ SLIDE 8 well glass slide (Millipore, Ireland) at the density of 2 × 10^4 per well. […] Then cells were incubated with primary antibody overnight at 4 ℃ after blocked with 1% BSA. Goat anti-rabbit and goat anti-mouse secondary antibodies conjugated to FITC and […] were used to detect primary antibodies. Cell nucleuses were stained with DAPI. Images were taken using a Leica cofocusing microscope.

NEK2 = NEK2 (Homo sapiens, UniProt P51955); experiment: kinase activity in vitro; assay type: biochemical
Sequence of NEK2 (P51955 whole entry): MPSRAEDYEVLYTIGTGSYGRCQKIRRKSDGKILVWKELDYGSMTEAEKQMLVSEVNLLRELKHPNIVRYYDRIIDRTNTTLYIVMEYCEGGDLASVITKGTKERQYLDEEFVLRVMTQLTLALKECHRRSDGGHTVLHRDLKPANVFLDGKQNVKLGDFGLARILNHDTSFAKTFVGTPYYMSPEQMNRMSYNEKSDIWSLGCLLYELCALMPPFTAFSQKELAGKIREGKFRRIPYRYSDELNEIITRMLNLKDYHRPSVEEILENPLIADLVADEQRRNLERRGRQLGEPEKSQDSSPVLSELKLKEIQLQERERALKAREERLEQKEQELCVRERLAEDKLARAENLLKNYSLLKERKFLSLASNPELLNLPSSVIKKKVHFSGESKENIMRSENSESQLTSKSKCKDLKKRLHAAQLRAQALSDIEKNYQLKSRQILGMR

JNK2 = JNK2 (Homo sapiens, UniProt P45984); experiment: kinase activity in vitro; assay type: biochemical
Sequence of JNK2 (P45984 whole entry): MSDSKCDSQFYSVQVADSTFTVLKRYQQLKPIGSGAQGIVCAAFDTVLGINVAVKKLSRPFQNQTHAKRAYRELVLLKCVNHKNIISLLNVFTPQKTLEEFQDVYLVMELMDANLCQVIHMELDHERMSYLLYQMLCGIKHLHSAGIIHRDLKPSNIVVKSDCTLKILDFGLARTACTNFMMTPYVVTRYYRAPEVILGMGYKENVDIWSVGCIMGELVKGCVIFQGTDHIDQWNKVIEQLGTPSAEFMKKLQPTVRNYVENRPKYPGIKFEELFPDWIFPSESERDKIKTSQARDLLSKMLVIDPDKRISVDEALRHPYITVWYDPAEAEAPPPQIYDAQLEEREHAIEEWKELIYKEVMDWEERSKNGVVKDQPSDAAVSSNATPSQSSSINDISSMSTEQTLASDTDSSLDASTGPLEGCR

CC(=O)Nc1nccc(-c2ccc3c(/C=C/c4ccc(CN(C)C)cc4)n[nH]c3c2)n1 [YLT-11, (E)-N-(4-(3-(4-((dimethylamino)methyl)styryl)-1H-indazol-6-yl)pyrimidin-2-yl)acetamide]
Percentage of cells with mitotic catastrophe (MDA-MB-468 [1]): approximately 67% | Percentage of cells with mitotic catastrophe (MDA-MB-231 [2]): about 58% | tumor inhibition rate [3]: 82.5% | IC50 (PLK1 [4]): 4780 nM | body weight and hematoxylin and eosin staining vs vehicle (sub-acute toxicity test): no obvious difference | serological and hematological analyses vs vehicle (sub-acute toxicity test): no significant difference | tumor inhibition rate [5]: 76.7% | IC50 (ERBB2/HER2): 539 nM | Kd (PLK1 [6]): > 10000 nM | IC50 (Aurora A): 468 nM | IC50 (MDA-MB-468 [7]): 68 nM | IC50 (TNBC cell lines): 68 to 120 nM | IC50 (MCF-10A): > 10000 nM | IC50 (MDA-MB-231 [8]): 120 nM | IC50 (ZR-75-1): 223 nM | IC50 (SKBR-3): 231 nM | IC50 (MDA-MB-435): 154 nM | IC50 (MCF-7): 74 nM | IC50 (ZR-75-30): 184 nM | IC50 (BT549): 73 nM | IC50 (BT474): 163 nM | IC50 (HCC1954): 170 nM | IC50 (MDA-MB-453): 210 nM | IC50 (MDA-MB-436): 80 nM | IC50 (FGFR1): 751 nM | inhibitory rate on tumor growth (breast xenograft models; breast xenograft models, 90 mg/kg (p.o)): more than 60% | body weight of experimental animals (breast xenograft models; xenograft mice, 30 and 90 mg/kg p.o. every day): no significant loss in body weight | IC50 (TTBK2): 8490 nM | tumor inhibition rate (MCF-7 tumor xenograft): 68% | IC50 (TTBK1): 56700 nM | Kd (PLK2 [9]): 653 nM | Kd (PLK3 [10]): > 10000 nM | IC50 (TOPK): 1030 nM | cleaved caspase-3-positive cells (MDA-MB-231 xenografts; vehicle 12.3 ± 5.1): 66 ± 7.3% | Ki67-positive cells (MDA-MB-231 xenografts; vehicle 78 ± 8.1%): 29 ± 6.3% | IC50 (EGFR): 664 nM | IC50 (PLK2 [11]): 5730 nM | IC50 (PLK3 [12]): 4120 nM | effect on centriole duplication ([13]; 0.5 μM): centriole duplications were conspicuously suppressed | effect on centriole numbers ([13]; low concentrations (≤0.25 μM)): increased the centriole numbers | IC50 (NEK2): 332 nM | IC50 (JNK2): 2700 nM

Source: publication PMC6194023 (Cell Death & Disease, 2018)
